Source: US20260109694A1, “HETEROCYCLIC COMPOUNDS AND USES THEREOF” (Kumquat Biosciences Inc., priority 2023, published 2026)

Columns and labels:
PTPN2 = molecular target: T1, PTPN2 (Homo sapiens, UniProt P17706); assay: Phosphatase activity assay (DiFMUP substrate); assay type: biochemical; conditions: value bin printed in column head
T1 sequence (P17706 1-415): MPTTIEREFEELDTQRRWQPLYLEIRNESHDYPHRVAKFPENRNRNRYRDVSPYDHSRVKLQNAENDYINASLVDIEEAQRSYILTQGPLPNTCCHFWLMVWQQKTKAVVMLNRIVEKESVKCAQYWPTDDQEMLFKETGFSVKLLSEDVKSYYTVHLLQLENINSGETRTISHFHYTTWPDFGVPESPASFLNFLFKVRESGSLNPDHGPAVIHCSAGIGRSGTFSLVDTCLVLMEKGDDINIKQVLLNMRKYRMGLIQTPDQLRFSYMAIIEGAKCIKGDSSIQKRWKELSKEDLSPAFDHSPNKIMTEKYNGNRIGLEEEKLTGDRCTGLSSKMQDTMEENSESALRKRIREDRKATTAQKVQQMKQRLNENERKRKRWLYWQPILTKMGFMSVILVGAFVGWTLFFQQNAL
Protocol: (§1) The selectivity and potency of a small molecule PTPN2 inhibitor as provided herein against one or more protein tyrosine phosphatase (PTP) enzymes, and specifically against PTPN2, is assessed in various ways. The one or more PTP enzymes comprise Mycobacterium protein tyrosine phosphatase A (mPTPA), Mycobacterium protein tyrosine phosphatase B (mPTPB), PTPN1 (i.e., PTP1B), PTPN2 (i.e., TC-PTP), PTPN22 (i.e., LYP), SHP-1, SHP-2, FAP-1, Meg2, HePTP, Laforin, VHX, VHR, LMWPTP, Cdc14A, LAR, CD45, PTPRG, a fragment thereof, a variant thereof, and a combination thereof. Selectivity and potency of a small molecule PTPN2 inhibitor is evaluated using a PTP activity inhibition assay. The assay is performed using a buffer comprising 50 mM HEPES buffer pH 7.5, 150 mM NaCl, 0.5 mM EDTA, 1 mM DTT, 0.001% Tween-20.
(§2) The assay is performed using a phosphated substrate, e.g., 10 mM 6,8-Difluoro-4-Methylumbelliferyl Phosphate (DIFMUP) that is stored at −20° C. Alternatively or in addition to, the assay is performed using other phosphated substrate (e.g., fluorescein diphosphate). Each PTP enzyme is diluted in the assay buffer
(§3) The assay can be carried out at room temperature in multiplate format, e.g., using 384 well plates. A small molecule PTPN2 inhibitor dissolved in DMSO at one of 10 concentrations from a serial dilution or DMSO alone for control is added to each well. A mixture of the assay buffer comprising PTP enzyme (e.g., 0.025 ng/ul PTPN2) is added to each well and mixed for approximately 2 minutes. The reaction is initiated by adding DiFMUP diluted in the assay buffer to a final concentration of approximately 45 µM DiFMUP in PTPN2 assay. For each PTP enzyme, DiFMUP is added at the Km (Michaelis constant) of the enzyme that had been independently determined. The phosphatase activity of the PTP enzyme is assessed by monitoring appearance of a fluorescent product (6,8-difluoro-7-hydroxyl-4-coumarin (DiFMU) from DiFMUP) continuously for about 15 to 30 minutes, using the INFINITE M1000Pro plate reader (Tecan) with excitation at 360 nm and emission at 450 nm (cutoff filter at 435 nm) for DiFMU. Each assay is performed at least in duplicate. The rate (e.g., the initial rate) of DiFMU formation is plotted against the concentration of the small molecule PTPN2 inhibitor, and the data is fitted (e.g., using a 4-parameter equation) to determine the inflection point of the fit as the IC50 of the small molecule PTPN2 inhibitor for a specific enzyme. Utilizing this assay, the ability of the compounds in Table 1 to inhibit PTPN2 and PTP1B has been assessed. Table 3 summarizes the IC50 values.

PTP1B = molecular target: T2, PTP1B (Homo sapiens, UniProt P18031); assay: Phosphatase activity assay (DiFMUP substrate); assay type: biochemical; conditions: value bin printed in column head
T2 sequence (P18031 1-435): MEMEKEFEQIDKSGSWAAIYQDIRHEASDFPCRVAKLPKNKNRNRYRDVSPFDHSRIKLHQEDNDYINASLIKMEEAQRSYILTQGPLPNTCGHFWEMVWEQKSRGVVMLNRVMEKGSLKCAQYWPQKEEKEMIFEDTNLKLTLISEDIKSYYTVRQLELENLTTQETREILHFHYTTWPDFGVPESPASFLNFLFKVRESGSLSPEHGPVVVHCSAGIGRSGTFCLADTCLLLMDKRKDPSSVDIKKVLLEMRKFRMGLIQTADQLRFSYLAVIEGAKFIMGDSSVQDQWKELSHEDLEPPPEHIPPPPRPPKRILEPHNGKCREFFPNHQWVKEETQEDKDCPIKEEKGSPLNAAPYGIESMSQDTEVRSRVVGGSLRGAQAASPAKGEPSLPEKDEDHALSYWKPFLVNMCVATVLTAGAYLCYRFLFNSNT
Protocol: as §1, §2, §3

| Compound | IC50 (PTPN2) | IC50 (PTP1B) |
| --- | --- | --- |
| O=C1CN(c2c(O)ccc(C3=CC(C4CC4)NC3)c2F)S(=O)(=O)N1 (stereo not drawn) [Compound 109, 5-(3-(5-cyclopropyl-2,5-dihydro-1H-pyrrol-3-yl)-2-fluoro-6-hydroxyphenyl)-1,2,5-thiadiazolidin-3-one 1,1-dioxide] | ≤ 1000 nM | ≤ 1000 nM |
| O=C1CN(c2c(O)ccc(C3=CC(CCC4CCCC4)NC3)c2F)S(=O)(=O)N1 (stereo not drawn) [Compound 101, 5-(3-(5-(2-cyclopentylethyl)-2,5-dihydro-1H-pyrrol-3-yl)-2-fluoro-6-hydroxyphenyl)-1,2,5-thiadiazolidin-3-one 1,1-dioxide] | ≤ 1000 nM | ≤ 1000 nM |
| O=C1CN(c2c(O)ccc(C3=CC(CCCC4CC4)NC3)c2F)S(=O)(=O)N1 (stereo not drawn) [Compound 123, 5-(3-(5-(3-cyclopropylpropyl)-2,5-dihydro-1H-pyrrol-3-yl)-2-fluoro-6-hydroxyphenyl)-1,2,5-thiadiazolidin-3-one 1,1-dioxide] | ≤ 1000 nM | ≤ 1000 nM |
| CC(OC(=O)[C@@H](N)C(C)C)OC(=O)N1CC(c2ccc(O)c(N3CC(=O)NS3(=O)=O)c2F)=C[C@H]1CCC1CCC1 (stereo partly drawn) [Compound 158, 1-((L-valyl)oxy)ethyl (2R)-2-(2-cyclobutylethyl)-4-(3-(1,1-dioxido-4-oxo-1,2,5-thiadiazolidin-2-yl)-2-fluoro-4-hydroxyphenyl)-2,5-dihydro-1H-pyrrole-1-carboxylate] | ≤ 1000 nM | ≤ 1000 nM |
| O=C1CN(c2c(O)ccc(C3=CC4CCCN4C3)c2F)S(=O)(=O)N1 (stereo not drawn) [Compound 139, 5-(2-fluoro-6-hydroxy-3-(2,3,5,7a-tetrahydro-1H-pyrrolizin-6-yl)phenyl)-1,2,5-thiadiazolidin-3-one 1,1-dioxide] | ≤ 1000 nM | ≤ 1000 nM |
| O=C1CN(c2c(O)cc(C3=CCNC3)cc2F)S(=O)(=O)N1 [Compound 128, 5-(4-(2,5-dihydro-1H-pyrrol-3-yl)-2-fluoro-6-hydroxyphenyl)-1,2,5-thiadiazolidin-3-one 1,1-dioxide] | ≤ 1000 nM | ≤ 1000 nM |
| CC(C)CC[C@H]1C=C(c2ccc(O)c(N3CC(=O)NS3(=O)=O)c2F)CN1C(=O)OC(OC(=O)[C@@H](N)C(C)C)C(C)C (stereo partly drawn) [Compound 162, 1-((L-valyl)oxy)-2-methylpropyl (2S)-4-(3-(1,1-dioxido-4-oxo-1,2,5-thiadiazolidin-2-yl)-2-fluoro-4-hydroxyphenyl)-2-isopentyl-2,5-dihydro-1H-pyrrole-1-carboxylate] | ≤ 1000 nM | ≤ 1000 nM |
| NC1CCCC1c1ccc(O)c(N2CC(=O)NS2(=O)=O)c1F (stereo not drawn) [Compound 112, 5-(3-(2-aminocyclopentyl)-2-fluoro-6-hydroxyphenyl)-1,2,5-thiadiazolidin-3-one 1,1-dioxide] | > 1000 nM | > 1000 nM |
| O=C1CN(c2c(O)ccc(OC3CCNC3)c2F)S(=O)(=O)N1 (stereo not drawn) [Compound 142, 5-(2-fluoro-6-hydroxy-3-(pyrrolidin-3-yloxy)phenyl)-1,2,5-thiadiazolidin-3-one 1,1-dioxide] | > 1000 nM | ≤ 1000 nM |
| CC(C)CC[C@H]1C=C(c2ccc(O)c(N3CC(=O)NS3(=O)=O)c2F)CN1C(=O)O[C@@H](C)OC(=O)C1CCCC1 [Compound 152, (S)-1-((cyclopentanecarbonyl)oxy)ethyl (S)-4-(3-(1,1-dioxido-4-oxo-1,2,5-thiadiazolidin-2-yl)-2-fluoro-4-hydroxyphenyl)-2-isopentyl-2,5-dihydro-1H-pyrrole-1-carboxylate] | > 1000 nM | ≤ 1000 nM |
| CCC[C@H]1C=C(c2ccc(O)c(N3CC(=O)NS3(=O)=O)c2F)CN1 [Compound 129, (S)-5-(2-fluoro-6-hydroxy-3-(5-propyl-2,5-dihydro-1H-pyrrol-3-yl)phenyl)-1,2,5-thiadiazolidin-3-one 1,1-dioxide] | ≤ 1000 nM | ≤ 1000 nM |
| O=C1CN(c2c(O)ccc(C3=C[C@@H](CCC4CCC4)NC3)c2F)S(=O)(=O)N1 [Compound 116, (R)-5-(3-(5-(2-cyclobutylethyl)-2,5-dihydro-1H-pyrrol-3-yl)-2-fluoro-6-hydroxyphenyl)-1,2,5-thiadiazolidin-3-one 1,1-dioxide] | ≤ 1000 nM | ≤ 1000 nM |
| CC(OC(=O)C(C)C)OC(=O)N1CC(c2ccc(O)c(N3CC(=O)NS3(=O)=O)c2F)=C[C@H]1CCC1CC1 (mixture of isomers) [Compound 111, 1-(isobutyryloxy)ethyl (2R)-2-(2-cyclopropylethyl)-4-(3-(1,1-dioxido-4-oxo-1,2,5-thiadiazolidin-2-yl)-2-fluoro-4-hydroxyphenyl)-2,5-dihydro-1H-pyrrole-1-carboxylate] | ≤ 1000 nM | ≤ 1000 nM |
| CC(C)CC[C@H]1C=C(c2ccc(O)c(N3CC(=O)NS3(=O)=O)c2F)CN1C(=O)O[C@H](C)OC(=O)C1CCCC1 [Compound 159, (R)-1-((cyclopentanecarbonyl)oxy)ethyl (S)-4-(3-(1,1-dioxido-4-oxo-1,2,5-thiadiazolidin-2-yl)-2-fluoro-4-hydroxyphenyl)-2-isopentyl-2,5-dihydro-1H-pyrrole-1-carboxylate] | > 1000 nM | ≤ 1000 nM |
| CC(C)C(=O)O[C@@H](C)OC(=O)N1CC(c2ccc(O)c(N3CC(=O)NS3(=O)=O)c2F)=C[C@H]1CCC1CC1 [Compound 143, (R)-1-(isobutyryloxy)ethyl (R)-2-(2-cyclopropylethyl)-4-(3-(1,1-dioxido-4-oxo-1,2,5-thiadiazolidin-2-yl)-2-fluoro-4-hydroxyphenyl)-2,5-dihydro-1H-pyrrole-1-carboxylate] | ≤ 1000 nM | ≤ 1000 nM |
| CC(C)C(=O)O[C@H](C)OC(=O)N1CC(c2ccc(O)c(N3CC(=O)NS3(=O)=O)c2F)=C[C@@H]1CCC1CC1 [Compound 155, (S)-1-(isobutyryloxy)ethyl (S)-2-(2-cyclopropylethyl)-4-(3-(1,1-dioxido-4-oxo-1,2,5-thiadiazolidin-2-yl)-2-fluoro-4-hydroxyphenyl)-2,5-dihydro-1H-pyrrole-1-carboxylate] | ≤ 1000 nM | ≤ 1000 nM |
| O=C1CN(c2c(O)ccc(C3=C[C@@H](CCC4CC4)NC3)c2F)S(=O)(=O)N1 [Compound 113, (R)-5-(3-(5-(2-cyclopropylethyl)-2,5-dihydro-1H-pyrrol-3-yl)-2-fluoro-6-hydroxyphenyl)-1,2,5-thiadiazolidin-3-one 1,1-dioxide] | ≤ 1000 nM | ≤ 1000 nM |
| CC1CC1C1C=C(c2ccc(O)c(N3CC(=O)NS3(=O)=O)c2F)CN1 (stereo not drawn) [Compound 117, 5-(2-fluoro-6-hydroxy-3-(5-(2-methylcyclopropyl)-2,5-dihydro-1H-pyrrol-3-yl)phenyl)-1,2,5-thiadiazolidin-3-one 1,1-dioxide] | ≤ 1000 nM | ≤ 1000 nM |
